From the supplement of paper PMC10307832

How the values were obtained:
Assay in all cases: relative viability (nuclei count vs DMSO), 5 days (fraction); higher = more cells survive
[1] = compound: C1CNCCC1C2=CC(=NN2)C3=CC=NC=C3
How it was run: (§1)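 Viability was defined as treated-well nuclei divided by vehicle-well nuclei, with the median taken over replicate plates. Cells from lung cancer lines sat overnight at 37 °C in 1536-well plates, received five √10-spaced library-drug doses by pinning on vehicle-anchored plates, and grew 5 days without medium change before one-step fixation, permeabilisation and Hoechst staining, 4× imaging and MetaXpress nuclear counts. Only plates with control CV under 25% and at least one doubling were kept.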

[2] = compound: C[C@@H](N)c1ccc(C(=O)Nc2ccnc3[nH]ccc23)cc1
How it was run: as §1

Tanzisertib = compound: O[C@H]1CC[C@H](Nc2ncc3nc(Nc4c(F)cc(F)cc4F)n([C@H]4CCOC4)c3n2)CC1 [Tanzisertib]
How it was run: as §1

Tanzisertib + Foretinib = compound: O[C@H]1CC[C@H](Nc2ncc3nc(Nc4c(F)cc(F)cc4F)n([C@H]4CCOC4)c3n2)CC1 [Tanzisertib] + COc1cc2c(Oc3ccc(NC(=O)C4(C(=O)Nc5ccc(F)cc5)CC4)cc3F)ccnc2cc1OCCCN1CCOCC1 [Foretinib] (partner 0.25 µM)
How it was run: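 Cells from lung cancer lines were seeded into 1536-well plates and, one day later, dosed by pin tool. Treatments were either a single drug or a fixed dose of an anchor drug with five library-drug doses (not always all listed) in √10 steps. After 5 days, nuclei were stained in a one-step fixation (final 0.05% Triton X-100, 1% formaldehyde, 1 ug/ml Hoechst) and counted on 4× images, and relative viability is the treated-to-vehicle nuclei ratio, as the median of duplicate plates.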

| Cell Line | relative viability ([1]; 0.08 µM) | relative viability ([1]; 0.8 µM) | relative viability ([1]; 2.53 µM) | relative viability ([1]; 8 µM) | relative viability ([2]; 0.04 µM) | relative viability ([2]; 0.1265 µM) | relative viability ([2]; 0.4 µM) | relative viability ([2]; 4 µM) | relative viability (Tanzisertib; 0.08 µM) | relative viability (Tanzisertib; 0.253 µM) | relative viability (Tanzisertib; 0.8 µM) | relative viability (Tanzisertib; 2.53 µM) | relative viability (Tanzisertib; 8 µM) | relative viability (Tanzisertib + Foretinib; first compound 0.08 µM) | relative viability (Tanzisertib + Foretinib; first compound 0.253 µM) | relative viability (Tanzisertib + Foretinib; first compound 0.8 µM) | relative viability (Tanzisertib + Foretinib; first compound 2.53 µM) | relative viability (Tanzisertib + Foretinib; first compound 8 µM) | relative viability ([2]; 1.265 µM) |
| --- | --- | --- | --- | --- | --- | --- | --- | --- | --- | --- | --- | --- | --- | --- | --- | --- | --- | --- | --- |
| NCI-H1793 | 0.835 | 0.702 | 0.923 | 0.878 | 0.973 | 0.952 | 1.08 | 1.11 | 1.07 | 0.857 | 0.998 | 0.758 | 0.522 | 0.659 | 0.74 | 0.734 | 0.569 | 0.547 |  |
| IA-LM | 1 | 1.01 | 0.996 | 1.02 | 1.13 | 1.1 | 1.4 | 1.12 | 1.08 | 0.989 | 0.989 | 0.96 | 0.94 | 1.02 | 1.28 | 1.04 | 1.28 | 1.09 | 1.16 |
| NCI-H2405 | 1.04 | 0.901 | 1.02 | 0.961 | 0.653 | 1.16 | 0.998 | 0.376 | 1.12 | 1.02 | 1.1 | 1.04 | 0.695 | 1.1 | 1.08 | 1.07 | 1.17 | 1.03 | 0.569 |
| A549 | 0.872 | 1.03 | 1.07 | 1.05 | 1.02 | 1.03 | 1.19 | 0.829 | 1 | 0.99 | 0.976 | 1 | 0.856 | 0.98 | 0.951 | 0.97 | 0.87 | 0.839 | 0.944 |
| LCLC-103H | 1.06 | 0.873 | 0.919 | 0.98 | 1.01 | 0.964 | 0.971 | 0.81 | 1.1 | 1.05 | 1.12 | 1 | 1.04 | 0.79 | 0.784 | 0.806 | 0.71 | 0.765 | 0.917 |
| NCI-H460 | 0.939 | 1.05 | 0.971 | 1.01 | 0.963 | 0.997 | 1.06 | 0.993 | 0.994 | 0.976 | 0.992 | 0.982 | 0.98 | 1.05 | 1.03 | 0.884 | 1.07 | 1.01 | 0.851 |
| NCI-H1755 | 1.01 | 0.915 | 1.03 | 0.948 | 0.911 | 0.987 | 0.945 | 0.793 | 1.02 | 0.958 | 1 | 0.97 | 0.961 | 0.913 | 0.931 | 0.882 | 0.891 | 0.878 | 0.937 |
| NCI-H358 | 0.902 | 0.994 | 1.02 | 0.822 | 0.912 | 0.925 | 0.921 | 0.754 | 1.12 | 0.912 | 0.865 | 0.938 | 0.581 | 0.774 | 0.589 | 0.694 | 0.73 | 0.442 | 0.86 |
| NCI-H1734 | 0.945 | 1.01 | 1.05 | 0.968 | 0.833 | 1.08 | 0.929 | 0.819 | 1.25 | 1.01 | 0.945 | 1.06 | 0.927 | 0.923 | 0.781 | 0.845 | 0.87 | 0.789 | 0.568 |
| EPLC-272H | 0.902 | 0.94 | 0.929 | 0.98 | 0.9 | 0.973 | 1.11 | 0.791 | 1.14 | 0.95 | 1.09 | 0.908 | 0.761 | 0.737 | 0.692 | 0.714 | 0.65 | 0.666 | 0.356 |
| NCI-H2126 | 0.944 | 0.969 | 1.06 | 1.02 | 1.06 | 0.999 | 0.994 | 1.1 | 1.01 | 1.08 | 1.03 | 0.983 | 0.893 | 1.24 | 1.21 | 1.15 | 1.19 | 1.12 | 0.889 |
